{"source": "patent US20220313620A1", "about": "“COMPOSITION FOR PREVENTING AND TREATING TAUOPATHIES” (SERVICIO ANDALUZ DE SALUD, priority 2019, published 2022)", "key": {"[1]": {"tested_on": "glycogen synthase kinase-3β (GSK-3β)", "test": "Hippocampal GSK-3β phosphorylation and total level (western blot) after 10 days of oral administration", "assay_type": "in vivo, Wistar rats", "conditions": "oral 100 mg/Kg for 10 days, hippocampus", "protocol": "(§1) Animal experimental procedures were carried out in accordance with the European Communities directive 2010/63/EU and Spanish legislation (Real Decreto 53/2013). The protocol was approved by the Research and approved by Ethics Committee for Animal Experiments of the University of Malaga, Spain. In accordance with the ARRIVE guidelines, all efforts were made to minimize animal suffering and to reduce the number of animals used per experimental group. Chronic drinking experiments on Wistar rats were performed on 20 male rats. All adult rats, ageing 2 months (≈300 g of body weight), were provided by Charles River Laboratories (Barcelona, Spain). The animals were housed individually under a standard 12 h light-dark cycle in a room with temperature and humidity control. Water and rat chow pellets were provided ad libitum throughout the course of the present study.\nCaromax®-D-Pinitol (3-O-methyl-d-chiro-inositol, DPIN, 98% purity) and Caromax®-D-Chiro-inositol (cis-1,2,3-trans-3,5,6-cyclohexanehexol, DCI) were provided by Euronutra SL (Málaga, Spain). They were dissolved in water to orally daily administration by drinking and/or gavage at dose of 100 mg/Kg of body weight (BW) in a 1 ml/kg of BW volume to Zucker and Wistar rats for 4 weeks (28 days) and 10 days, respectively (FIG. 1). During the drinking treatments, the concentration of inositols in the water were updated considering the daily increase of BW of the rats and the possible loss of water by evaporation.\nBrain extract. Frozen brain samples (17 mg per sample) were homogenized in 1 mL of cold RIPA lysis buffer (50 mM Tris-HCl pH 7.4, 150 mM NaCl, 0.5% NaDOC, 1 mM EDTA, 1% Triton, 0.1% SDS, 1 mM Na3VO4, 1 mM NaF) supplemented with a protease cocktail (Hoffmann-Roche). The suspension was incubated for 2 hours at 4° C., followed by centrifugation at 12,000 rpm for 15 minutes at 4° C. The supernatant was transferred to a new clean centrifuge tube, and Bradford colorimetric method was used to determine the concentration of the total protein. The protein extracts were diluted 1:1 in loading buffer (DTT 2X) and heated for 5 minutes at 99° C. before being subjected to electrophoresis.\nWestern Blot Analysis. The tissue protein (10-15 μg) was subjected to electrophoresis on 4-12% Criterion XT Precast Bis-Tris gels (Bio-Rad, USA) for 30 minutes at 80V and 2 h at 150V. Proteins were transferred onto a 0.2 μm nitrocellulose membrane (Bio-Rad, USA) for 1 h at 80V by wet transfer equipment. The membrane was washed twice for 5 min in TBST (10 mM Tris-HCl, 150 mM NaCl, 0.1% Tween 20, pH 7.6) and blocked with 2% Bovine Serum Albumin-Tris Buffered Saline Tween 20 (BSA-TBST) for one hour at room temperature on a shaker platform. Subsequently, the membrane was incubated with respective primary antibodies overnight at 4° C. diluted in 2% BSA-TBST (Table 2 for additional information). The following day, the membrane was washed three times for 5 min with TBST. An appropriate HRP conjugated rabbit/mouse secondary antibody (Promega) was diluted 1:10000 in 2% BSA-TST and incubated with the membrane for 1 h shaking at room temperature. Finally, the membrane was washed as above and exposed to chemiluminescent reagent (Santa Cruz, Biotechnology Inc.) for 5 min. Stripping/reproving steps were used when necessary. Respective membrane bound protein was then visualized by Chemiluminescence (ChemiDoc Imaging System, Bio-Rad). Bands were quantified by densitometric analysis using ImageJ software (Rasband, WS, ImageJ, US National Institutes of Health, Bethesda, Md., USA). Normalization was performed using a reference protein of the same membrane, the α-Adaptin. The results were expressed as the protein/α-Adaptin ratio or phosphorylated/total protein ratio and normalized to the control group (Y axis represents ‘fold mean of the control values’).\nAll data are expressed as mean±SEM. Statistical analysis was undertaken for studies where each group size was of, at least, n=5. […]"}, "[2]": {"test": "Plasma glucose levels after acute oral gavage", "assay_type": "in vivo", "conditions": "oral 500 mg/kg, adult male Wistar rats, FIG. 3C", "protocol": "Experimental procedures with animals were carried out in strict accordance with the recommendations in the European Communities directive 2010/63/EU and Spanish legislation (Real Decreto 53/2013, BOE 34/11370-11421, 2013) regulating the care and use of laboratory animals. The protocol was approved by the Ethics Committee for Animal Experiments of the University of Malaga. All studies involving animals were reported in accordance with the ARRIVE guidelines for reporting experiments involving animals (Kilkenny, C., Browne, W. J., Cuthill, I. C., Emerson, M. & Altman, D. G. Improving Bioscience Research Reporting: The ARRIVE Guidelines for Reporting Animal Research. PLoS Biol 8, e1000412, https://doi.org/10.1371/journal.pbio.1000412 (2010). All efforts were made to minimize animal suffering and to reduce the number of animals used. The experiments were performed on 4-to-5-week-old male Wistar rats (Crl:Wl; Charles River Laboratories, Barcelona, Spain). The animals were under a standard 12 h light-dark cycle in a room with temperature and humidity control. All the rats were provided with water and commercially available rat standard pellet diet (STD) (3.02 kcal/g with 30 kcal % protein, 55 kcal % carbohydrates and 15 kcal % fat) ad libitum. […]"}, "[3]": {"tested_on": "Mitogen-activated Protein Kinase (MAPK/ERK1/2)", "test": "Hippocampal MAPK/ERK1/2 (western blot) after 10 days of oral drinking", "assay_type": "in vivo, Wistar rats", "conditions": "oral by drinking 100 mg/Kg for 10 days, hippocampus, FIG. 10", "protocol": "as §1, with “study. […]” for “study.”\nWestern Blot Analysis. […] Bands were quantified by densitometric analysis using ImageJ software (Rasband, WS, ImageJ, US National Institutes of Health, Bethesda, Md., USA). […] The results were expressed as the protein/α-Adaptin ratio or phosphorylated/total protein ratio and normalized to the control group (Y axis represents ‘fold mean of the control values’).\nAll data are expressed as mean±SEM. […]"}}}
{"smiles": "COC1[C@@H](O)[C@@H](O)C(O)[C@H](O)[C@H]1O", "note": "(stereo partly drawn) [DPIN, (1S,2S,4S,5R)-6-methoxycyclohexane-1,2,3,4,5-pentol]", "values": [{"measurement": "GSK-3β serine-9 phosphorylation", "setting": "[1]; FIG. 9A.1", "value": "no effect"}, {"measurement": "GSK-3β tyrosine-216 phosphorylation", "setting": "[1]; FIG. 9A.2", "value": "no effect"}, {"measurement": "GSK-3β kinase activity (Ser9/Tyr216)", "setting": "[1]; FIG. 9A.3", "value": "neither enhance nor inhibition"}, {"measurement": "glucose levels in plasma", "setting": "[2]", "value": "maintenance"}, {"measurement": "kinase activation and total expression of MAPK/ERK1/2", "setting": "[3]", "value": "No other changes"}]}
